Assay [1] deals with T1, kappa opioid receptor (Mus musculus, UniProt P33534).
T1 construct: from tissue; host or cells: mouse vas deferens (male Swiss Albino mice)
Kind of assay: Ex-vivo KOR agonistic activity, electrically stimulated mouse vas deferens (MVD) model. How it is done: a) Ex-Vivo KOR Agonistic Activity Testing, Using Electrically Stimulated Mouse Vas Deferens (MVD) Model:
Ex-vivo, the kappa opioid receptor agonistic activity of test compounds were tested on the electrically stimulated mouse vas deferens (MVD) preparations (Henderson et al., Br. J. Pharmacol., 46, 764-766, 1972; Portoghese et al., Life Sci. 36, 801-805, 1985) and IC50 were determined. In general, vas deferentia were taken from male Swiss Albino mice (30-40 g) and suspended in 8 ml organ baths, at 31° C., containing modified Krebs-Henseleit solution, without magnesium sulphate. Each vas deferens was equilibrated for 45 min at 2.6 mN tension and then stimulated at supramaximal voltage with five 1 ms pulses, at a frequency of 0.1 Hz. Concentration-response curves were determined by cumulative dosing. Inhibitory Concentration, 50% (IC50) values were determined by Sigmoidal dose-response (variable slope) equation, using Prizm v 6.01. The kappa opioid receptor specificity was determined by rightward shift in concentration-response curves in presence of 1 nM norbinaltorphimine (norBNI), a selective kappa opioid receptor antagonist.

Assay [2] concerns the target T2, kappa opioid receptor (Homo sapiens, UniProt P41145).
T2 construct: grown in complete Ham's F-12 medium
Put plainly: Invitro KOR agonistic activity, cAMP based functional assay. In kind it is cell-based.

Where [3] appears, read: electrically stimulated mouse vas deferens preparation, cumulative dosing, read-out: Ex-vivo IC50.
Setting [4] is: cAMP direct ELISA, forskolin 20 μM, agonist 20 minutes, read-out: In-vitro EC50.

Read-outs that look alike come from different tables or passages of the source.

In general, IC50 refers to the concentration needed to halve the response being measured. As usually defined, the EC50 is the concentration that produces a half-maximal response.

T1 sequence (P33534 whole entry): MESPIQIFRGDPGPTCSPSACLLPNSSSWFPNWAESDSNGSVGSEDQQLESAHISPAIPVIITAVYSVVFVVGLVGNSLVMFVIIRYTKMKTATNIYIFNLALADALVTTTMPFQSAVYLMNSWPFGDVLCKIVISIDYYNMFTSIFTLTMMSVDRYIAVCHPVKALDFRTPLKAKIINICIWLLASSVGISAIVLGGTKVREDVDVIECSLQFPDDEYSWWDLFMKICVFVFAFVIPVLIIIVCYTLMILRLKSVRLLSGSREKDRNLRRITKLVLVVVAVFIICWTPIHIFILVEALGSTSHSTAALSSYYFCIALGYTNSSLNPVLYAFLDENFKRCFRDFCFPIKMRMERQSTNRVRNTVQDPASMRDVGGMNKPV
T2 sequence (P41145 whole entry): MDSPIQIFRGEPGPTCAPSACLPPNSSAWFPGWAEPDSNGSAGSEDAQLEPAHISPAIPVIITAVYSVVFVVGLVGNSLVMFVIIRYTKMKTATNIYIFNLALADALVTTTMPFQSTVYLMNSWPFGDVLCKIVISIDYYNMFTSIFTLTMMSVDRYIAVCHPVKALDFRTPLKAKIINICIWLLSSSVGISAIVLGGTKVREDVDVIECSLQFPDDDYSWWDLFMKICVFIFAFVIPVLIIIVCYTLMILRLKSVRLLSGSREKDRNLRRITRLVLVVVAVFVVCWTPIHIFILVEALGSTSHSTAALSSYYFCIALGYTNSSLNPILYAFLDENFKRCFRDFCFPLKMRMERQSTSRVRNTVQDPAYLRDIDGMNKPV

Turning to “N-((S)-2-((S)-3-hydroxypyrrolidin-1-yl)-1-phenylethyl)- N-methyl-2-((8-sulfonamido)quinolin-5-yloxy)acetamide [Compound 36]”, the 50% inhibitory concentration (IC50) in assay [1] (setting [3]) was 7.8 nM. Also, the EC50 in assay [2] (setting [4]) was 1.12 nM.

In assay [1], `CN(C(=O)COc1ccc(NS(=O)(=O)CCl)c2ncccc12)[C@H](CN1CC[C@H](O)C1)c1ccccc1` [Compound 26] yielded an IC50 of 29 nM. In assay [2], it took 0.012 nM to reach a half-maximal effect (EC50).

For `COc1cccc([C@@H](CN2CC[C@H](O)C2)N(C)C(=O)COc2ccc(NS(C)(=O)=O)c3ncccc23)c1` [Compound 49, N-((S)-2-((S)-3-hydroxypyrrolidin-1-yl)-1-(3-methoxyphenyl)ethyl)-N-methyl-2-((8-(methylsulfonamido)quinolin-5-yl)oxy) acetamide], the IC50 in assay [1] turned out to be 1.9 nM. In assay [2], this molecule gave an EC50 of 0.032 nM.

In assay [1], `CN(C(=O)COc1ccc2ccoc2c1)[C@H](CN1CC[C@H](O)C1)c1ccccc1` [Compound 17, 2-(benzofuran-6-yloxy)-N-((S)-2-((S)-3-hydroxypyrrolidin-1-yl)-1-phenylethyl)-N-methylacetamide] had an IC50 of 7 nM. A half-maximal effect in assay [2] (EC50) was put at 0.012 nM.

With `CN(C(=O)COc1ccc2ccoc2c1)[C@H](CN1CC[C@H](O)C1)c1cccc(NS(C)(=O)=O)c1` [Compound 56, 2-(benzofuran-6-yloxy)-N-((S)-2-((S)-3-hydroxypyrrolidin-1-yl)-1-(3-(methylsulfonamido)phenyl)ethyl)-N-methylacetamide], the IC50 in assay [1] amounted to 88 nM. In assay [2], this molecule showed an EC50 of 1.11 nM.

Regarding `CN(C(=O)COc1ccc2c3c1CCCN3S(=O)(=O)N2)[C@H](CN1CC[C@H](O)C1)c1ccccc1` [Compound 30], the IC50 in assay [1] (setting [3]) was 9400 nM. Further, the EC50 in assay [2] amounted to 900 nM.

In assay [1], `CN(C(=O)COc1ccc2c(c1)OCC2)[C@H](CN1CC[C@H](O)C1)c1ccccc1` [Compound 18, 2-((2,3-dihydrobenzofuran-6-yl)oxy)-N-((S)-2-((S)-3-hydroxypyrrolidin-1-yl)-1-phenylethyl)-N-methylacetamide] had an IC50 of 8.2 nM. Besides, the response in assay [2] was half-maximal at 0.07 nM (EC50).

Molecule `CN(C(=O)COc1ccc(NS(=O)(=O)N(C)C)c2ncccc12)[C@H](CN1CC[C@H](O)C1)c1ccccc1` [Compound 24, 2-((8-((N,N-dimethylsulfamoyl)amino)quinolin-5-yl)oxy)-N-((S)-2-((S)-3-hydroxypyrrolidin-1-yl)-1-phenylethyl)-N-methyl-acetamide] registered an IC50 in assay [1] of 5 nM. The EC50 in assay [2] came to 0.055 nM.

The molecule `CN(C(=O)COc1ccc2ncccc2c1)[C@H](CN1CC[C@H](O)C1)c1ccccc1` [Compound 19, N-((S)-2-((S)-3-hydroxypyrrolidin-1-yl)-1-phenylethyl)-N-methyl-2-(quinolin-6-yloxy)acetamide] had an IC50 in assay [1] of 135 nM. Further, the EC50 in assay [2] is 1.31 nM.

Molecule `CN(C(=O)COc1ccc(NS(=O)(=O)N2CCCC2)c2ncccc12)[C@H](CN1CC[C@H](O)C1)c1ccccc1` [Compound 38] displayed an IC50 in assay [1] of 7.4 nM. The molecule also yielded an EC50 in assay [2] of 0.95 nM.

In assay [1], `COCC(=O)Nc1ccc(OCC(=O)N(C)[C@H](CN2CC[C@H](O)C2)c2ccccc2)c2cccnc12` [Compound 35, N-((S)-2-((S)-3-hydroxypyrrolidin-1-yl)-1-phenylethyl)-2-((8-(2-methoxyacetamido)quinolin-5-yl)oxy)-N-methylacetamide] showed an IC50 of 48 nM. The EC50 in assay [2] stood at 0.06 nM.

In assay [1], `CN(C(=O)COc1cccc2ncccc12)[C@H](CN1CC[C@H](O)C1)c1cccc(NS(C)(=O)=O)c1` [Compound 46] yielded an IC50 of 9.5 nM. Further, in assay [2], the midpoint of the response, the EC50, lay at 0.042 nM.

`CN(C(=O)COc1ccc([N+](=O)[O-])c2cccnc12)[C@H](CN1CC[C@H](O)C1)c1ccccc1` [Compound 7, N-((S)-2-((S)-3-hydroxypyrrolidin-1-yl)-1-phenylethyl)-N-methyl-2-((5-nitroquinolin-8-yl)oxy)acetamide] returned an IC50 in assay [1] of 0.84 nM. This molecule returned an EC50 in assay [2] of 0.015 nM.

In the case of `CN(C(=O)COc1cccc2c1N(S(C)(=O)=O)CCC2)[C@H](CN1CC[C@H](O)C1)c1ccccc1` [Compound 12, N-((S)-2-((S)-3-hydroxypyrrolidin-1-yl)-1-phenylethyl)-N-methyl-2-((1-(methylsulfonyl)-1,2,3,4-tetrahydroquinolin-8-yl)oxy)acetamide], in assay [1], the IC50 was found to be 2 nM. In addition, the EC50 in assay [2] was determined as 0.005 nM.

The molecule `CN(C(=O)COc1nccc2ccccc12)[C@H](CN1CC[C@H](O)C1)c1ccccc1` [Compound 9, N-((S)-2-((S)-3-hydroxypyrrolidin-1-yl)-1-phenylethyl)-2-(isoquinolin-1-yloxy)-N-methylacetamide] registered an IC50 in assay [1] of 13 nM. Also, in assay [2], the EC50 worked out at 0.012 nM.

In the case of `Cc1cccc([C@@H](CN2CC[C@H](O)C2)N(C)C(=O)COc2ccc(NS(C)(=O)=O)c3ncccc23)c1` [Compound 54, N-((S)-2-((S)-3-hydroxypyrrolidin-1-yl)-1-(3-methyl)ethyl)-N-methyl-2-((8-(methylsulfonamido)quinolin-5-yl)oxy)acetamide], the IC50 in assay [1] was determined as 14 nM. The EC50 in assay [2] was determined as 0.098 nM.

Turning to “N-((S)-2-((S)-3-hydroxypyrrolidin-1-yl)-1-phenylethyl)- N-methyl-2-((8-(pyrrolidine-1-sulfonamido)-1,2,3,4- tetrahydroquinolin-5-yloxy)acetamide [Compound 39]”, the IC50 in assay [1] (setting [3]) stood at 0.95 nM. Besides, in assay [2] (setting [4]), the EC50 was 0.088 nM.

In assay [1], `CC(=O)N1CCCc2c(OCC(=O)N(C)[C@H](CN3CC[C@H](O)C3)c3ccccc3)ccc(NS(C)(=O)=O)c21` [Compound 31, 2-((l-acetyl-8-(methylsulfonamido)-1,2,3,4-tetrahydroquinolin-5-yl)oxy)-N-((S)-2-((S)-3-hydroxypyrrolidin-1-yl)-1-phenylethyl)-N-methylacetamide] came in with an IC50 of 118 nM. The molecule also yielded an EC50 in assay [2] of 0.51 nM.

As for `CNS(=O)(=O)Nc1ccc(OCC(=O)N(C)[C@H](CN2CC[C@H](O)C2)c2ccccc2)c2cccnc12` [Compound 23, N-((S)-2-((S)-3-hydroxypyrrolidin-1-yl)-1-phenylethyl)-N-methyl-2-((8-((N-methylsulfamoyl)amino)quinolin-5-yl)oxy)-acetamide], the IC50 in assay [1] turned out to be 8.4 nM. In addition, the midpoint of the response in assay [2], the EC50, lay at 0.017 nM.

`CN(C(=O)COc1ccc2cc(NS(C)(=O)=O)ccc2n1)[C@H](CN1CC[C@H](O)C1)c1ccccc1` [Compound 2, N-((S)-2-((S)-3-hydroxypyrrolidin-1-yl)-1-phenylethyl)-N-methyl-2-((6-methylsulfonamido)quinolin-2-yloxy)acetamide] yielded an IC50 in assay [1] of 2590 nM. In assay [2], this molecule had an EC50 of 4.93 nM.

Turning to `CN(C(=O)COc1cccc2c1NCCC2)[C@H](CN1CC[C@H](O)C1)c1ccccc1` [Compound 11, N-((S)-2-((S)-3-hydroxypyrrolidin-1-yl)-1-phenylethyl)-N-methyl-2-(1,2,3,4-tetrahydroquinolin-8-yloxy)acetamide], in assay [1], the IC50 worked out at 1.6 nM. Also, the EC50 in assay [2] amounted to 0.004 nM.

For the molecule `CN(C)c1cccc([C@@H](CN2CC[C@H](O)C2)N(C)C(=O)COc2ccc(NS(C)(=O)=O)c3ncccc23)c1` [Compound 47, N-((S)-1-(3-dimethylaminophenyl)-2-((S)-3-hydroxypyrrolidin-1-yl)ethyl)-N-methyl-2-((8-(methylsulfonamido)quinolin-5-yl)oxy) acetamide], the IC50 in assay [1] was 88 nM. It took 0.691 nM to reach a half-maximal effect in assay [2] (EC50).

These data come from patent US20170007610A1, “NOVEL HETEROBICYCLIC COMPOUNDS AS KAPPA OPIOID AGONISTS” (priority 2014, published 2017).
